# Entries after “also recorded” stand apart in the source; their conditions may differ. Marks after values point to notes of the source that are not given here.
# Experiments:
# [1] = system: human VEGF; assay: Intra-tumor and plasma human VEGF in HT1080 xenograft mice (ELISA); type: in vivo; conditions: for Mean difference in human plasma VEGF (%) on Day 14 / Mean difference in human tumor VEGF (%) at Day 14: 14 days
# Source text: Human HT1080 cells (5×10^6 cells/mice) were implanted subcutaneously into male athymic nude mice. Human HT1080 cells constitutively produce human VEGF. Treatment with vehicle alone or Compound 1205 was initiated when the median tumor volume was approximately 311±88 mm^3. Table 3 and Table 4 provide the study design for assessing tumor and pathological plasma VEGF concentrations—each group in each study included eight (8) mice. When the tumors in vehicle-treated mice had reached the target size of about 1200 mm^3 for study #21 and about 1500 mm^3 for study #23, all mice in the study were sacrificed, and excised tumors were homogenized in buffer containing protease inhibitors. Both intra-tumor and plasma human VEGF levels were measured using an ELISA that recognizes human VEGF121 and VEGF165. Intra-tumor VEGF levels were normalized to the total tumor protein concentration and plasma VEGF levels were expressed in pg/mL. Because smaller tumors produce less VEGF per mg of tumor protein, intra-tumor VEGF levels were normalized to tumor size.
# [2] = system: HT1080 cells; assay: Cell cycle analysis of HT1080 cells (propidium iodide, flow cytometry); type: cell-based, human; conditions: 10 nM, 18 hours, normoxic conditions; in words
# Experimental: During the in vitro evaluation of Compound 1205 effects on VEGF expression, an examination of its actions on tumor cell cycling was performed. HT1080 cells were incubated under normoxic conditions (21% oxygen) for 18 hours with vehicle (0.5% DMSO) alone, or with 10 nM of Compound 1205. After treatment, cells were trypsinized, and stained with propidium iodide (PI) dye to measure DNA content of individual cells by flow cytometry. Output comprised histograms showing relative DNA content in 10,000 cells.
# [3] = Solubility in water
# [4] = system: hypoxia-induced VEGF production in HeLa cells; assay: cells; type: cell-based, human; conditions: for EC50: Homo sapiens, HeLa
# [5] = system: murine kidney VEGF; assay: Mouse kidney VEGF levels in tumor-bearing mice; type: in vivo; conditions: 0.5 mg/kg (28 days) or 3 mg/kg (32 days); in words
# Experimental: After mouse tumors reached 1500 mm^3, mice were sacrificed and tissues were collected at the time of necropsy, homogenized, and analyzed. On average, mice treated with Compound 1205 at 0.5 mg/kg were on study for 28 days, and mice treated with Compound 1205 at 3 mg/kg were on study for 32 days.
# [6] = Bioavailability in vivo of aqueous suspension; conditions: in words
# Source text: It is anticipated that Compound 1205 can be clinically administered via a solid-dosage form. For all the studies outlined herein, Compound 1205 was lyophilized prior to formulation to minimize batch-to-batch variations in particle-size.
# [7] = system: HT1080 xenografts; assay: HT1080 xenograft tumor growth in male athymic nude mice; type: in vivo; conditions: for Growth of HT1080 tumors in vivo (FIG. 4): study #24a, in words
# Source text: Experimental Design. HT1080 cells (5×10^6 cells/mouse) were implanted subcutaneously in male athymic nude mice. […] For comparison, Compound #10 was included in this study.
# [8] = Plasma trough levels in patients having a variety of cancers; type: in vivo, human; conditions: combination therapy with Compound #10; in words
# [9] = system: VEGF production in tumor cells; assay: VEGF production in tumor cells (data not shown); type: cell-based; conditions: in words
# Source text: In addition to its effects on pathological VEGF production, a Compound provided herein provokes a late GI/early S-Phase cell cycle delay, i.e., between the late resting or pre-DNA synthesis phase, and the early DNA synthesis phase in those tumor cell lines in which VEGF generation is decreased by the Compound. See Section 8.3. […] The cell cycle delay and inhibition of pathological VEGF protein production occur in concert, linking these phenotypes in inflammation, pathological angiogenesis and tumor growth. […] Thus, these experiments indicate that the effects of the Compound on the tumor cell cycle occur in parallel with its actions on pathological VEGF production in tumors.
# [10] = system: Caki-1 cells; assay: Caki-1 renal cell carcinoma xenograft (VHL-positive), tumor volume; type: in vivo, mice; conditions: for Median time for tumors to reach 1000 mm^3: Compound #10 10 mg/kg QD PO; for Median time for tumors to reach 1000 mm^3 / Tumors smaller than those in vehicle-treated mice: sunitinib 75 mg/kg QD PO, rapamycin 15 mg/kg PO; for Tumors smaller than those in vehicle-treated mice: Day 35, Compound #10 10 mg/kg QD PO
# Experimental: The Caki-1 cell line expresses the von Hippel-Lindau (VHL) protein which acts as a tumor suppressor by promoting the rapid degradation of HIF-1α (hypoxia-inducible factor 1α) under normoxia. Under hypoxic conditions, HIF-1α is stabilized and activated by the inability of VHL to act resulting in increased transcription of VEGF that is responsible for the high vascularization of RCC (see Turcotte et al, 2003, Zimmer et al, 2004).
# (§1) A total of 100 mice were injected, of which 60 were used in the study.
# Groups were taken off study when the mean tumor volume in a group was 1300 mm^3 or more. Vehicle-treatment started on Day 0 and continued through Day 35. Compound #10-treatment started on Day 0 and continued through Day 52.
# (§2) Tumors were measured twice per week using digital calipers.
# […] The median values were reported.
# [11] = 786-O xenograft study: body weight and clinical observations; conditions: 786-O study
# [12] = mouse, in vivo
# [13] = Caki-1 xenograft study: body weight and clinical observations; type: in vivo, mice; conditions: Caki-1 study
# Source text: Body Weight: The mice were weighed once per week.
# [14] = system: 786-O cells; assay: 786-O renal cell carcinoma xenograft (VHL-negative), tumor volume; type: in vivo, mice; conditions: for Median time for tumors to reach 1000 mm^3: Compound #10 10 mg/kg QD PO, time on study used if not reached; for Median time for tumors to reach 1000 mm^3 / Tumors smaller than those in vehicle-treated mice: sunitinib 75 mg/kg QD PO, rapamycin 15 mg/kg PO; for Tumors smaller than those in vehicle-treated mice: Day 57, Compound #10 10 mg/kg QD PO
# Experimental: Both sunitinib and rapamycin are used clinically for treatment of renal cancer.
# as §1
# Groups were taken off study when the mean tumor volume in a group was 1300 mm^3 or more. Vehicle-treatment started on Day 0 and continued through Day 57. Compound #10-treatment started on Day 0 and continued through Day 88.
# as §2
# The time to progression to reach a tumor volume 1000 mm^3 was calculated for each mouse. The median values were reported.
smiles,measurement,setting,value
O=C(Oc1ccc(Cl)cc1)N1CCc2c([nH]c3ccc(Cl)cc23)[C@@H]1c1ccc(OCC[C@H](O)CO)cc1 [Compound 1205],Inhibition of plasma VEGF levels,[1]; 0.5 or 3 mg/kg QD,more than 95%
same,Inhibition of tumor VEGF levels,[1]; 0.5 or 3 mg/kg QD,more than 95%
same,Mean difference in human plasma VEGF (%) on Day 14,"[1]; Study #21, 0.5 mg/kg QD",97%**
same,Mean difference in human tumor VEGF (%) at Day 14,"[1]; Study #21, 0.5 mg/kg QD",95%**
same,Mean difference in human plasma VEGF (%) on Day 14,"[1]; Study #21, 3 mg/kg QD",99%
same,Mean difference in human tumor VEGF (%) at Day 14,"[1]; Study #21, 3 mg/kg QD",98%**
same,Mean difference in human plasma VEGF (%) on Day 14,"[1]; Study #23, 1 mg/kg QD",100%**
same,Mean difference in human tumor VEGF (%) at Day 14,"[1]; Study #23, 1 mg/kg QD",95** %
same,Volume normalized intra-tumor VEGF levels,"[1]; treated groups vs vehicle, in words",significantly reduced
same,"Cell cycle distribution (relative DNA content, FIG. 5)",[2],induced a redistribution of the cycling characteristics of the cell population
same,solubility,[3],~1 µg/mL
same,Inhibition of stress-induced VEGF production (FIG. 1),[4],inhibit stress-induced VEGF production
same,EC50,[4],< 8 nM
same,Murine kidney VEGF levels (FIG. 6),[5],did not significantly decrease murine kidney VEGF levels
same,Bioavailability,[6],bioavailable in vivo
same,Lowest dose at which active,[7]; HT1080 xenograft,≤ 0.3 mg/kg
same,Mean difference in tumor growth rate at the Day that the vehicle-treated tumors taken off study (%),"[7]; Study 21, 0.5 mg/kg QD, Day 14",61%**
same,Final mean terminal tumor size in treatment group (mm^3),"[7]; Study 21, 0.5 mg/kg QD, administered 14 days",580 mm^3
same,Mean difference in tumor growth rate at the Day that the vehicle-treated tumors taken off study (%),"[7]; Study 21, 3 mg/kg QD, Day 14",80%**
same,Final mean terminal tumor size in treatment group (mm^3),"[7]; Study 21, 3 mg/kg QD, administered 14 days",379 mm^3
same,"Difference vs. vehicle in median number of days to reach 1000 mm^3,","[7]; Study 22, 0.5 mg/kg QD",11 days
same,Mean difference in tumor growth rate at the Day that the vehicle-treated tumors taken off study (%),"[7]; Study 22, 0.5 mg/kg QD, Day 11",62%**
same,Final mean terminal tumor size in treatment group (mm^3),"[7]; Study 22, 0.5 mg/kg QD, administered 28 days",1750 mm^3
same,"Difference vs. vehicle in median number of days to reach 1000 mm^3, (Days)","[7]; Study 22, 3 mg/kg QD",14** Days
same,Mean difference in tumor growth rate at the Day that the vehicle-treated tumors taken off study (%),"[7]; Study 22, 3 mg/kg QD, Day 11",75%**
same,Final mean terminal tumor size in treatment group (mm^3),"[7]; Study 22, 3 mg/kg QD, administered 32 days",1840 mm^3
same,Mean difference in tumor growth rate at the Day that the vehicle-treated tumors taken off study (%),"[7]; Study 23, 1 mg/kg QD, Day 14",59%**
same,Final mean terminal tumor size in treatment group (mm^3),"[7]; Study 23, 1 mg/kg QD, administered 14 days",710 mm^3
same,"Difference vs. vehicle in median number of days to reach 1000 mm^3, (Days)","[7]; Study 24a, 10 mg/kg QD, Compound 1205 column",14** Days
same,Mean difference in tumor growth rate at the Day that the vehicle-treated tumors taken off study (%),"[7]; Study 24a, 10 mg/kg QD, Day 11, Compound 1205 column",76%**
same,Final mean terminal tumor size in treatment group (mm^3),"[7]; Study 24a, 10 mg/kg QD, administered 30 days",1400 mm^3
same,"Difference vs. vehicle in median number of days to reach 1000 mm^3,","[7]; Study 24b, 0.3 mg/kg QD",0.7 days
same,Mean difference in tumor growth rate at the Day that the vehicle-treated tumors taken off study (%),"[7]; Study 24b, 0.3 mg/kg QD, Day 15",28%
same,Final mean terminal tumor size in treatment group (mm^3),"[7]; Study 24b, 0.3 mg/kg QD, administered 16 days",1540 mm^3
same,Growth of HT1080 tumors in vivo (FIG. 4),[7]; 10 mg/kg QD,significantly delayed growth of HT1080 tumor cells in vivo
O=C(Oc1ccc(Cl)cc1)N1CCc2c([nH]c3ccc(Cl)cc23)[C@H]1c1ccc(OCC[C@H](O)CO)cc1 [Compound 1330],EC50,[4],> 1000 nM
same,Growth of HT1080 tumors in vivo (FIG. 4),[7]; 10 mg/kg QD,overlapped with the growth of tumors in mice treated with 0.5% HPMC vehicle
CC(=O)O[C@@]12CO[C@@H]1C[C@H](O)[C@@]1(C)C(=O)[C@H](O)C3=C(C)[C@@H](OC(=O)[C@H](O)[C@@H](NC(=O)OC(C)(C)C)c4ccccc4)C[C@@](O)([C@@H](OC(=O)c4ccccc4)[C@H]21)C3(C)C [docetaxel],PK profile (FIG. 18),[8],consistent with historical data
NC(Cn1ccc(=O)c(O)c1)C(=O)O (centres unmarked) [mimosine],Effect on VEGF production,[9],does not reduce VEGF production
CO[C@H]1C[C@@H]2CC[C@@H](C)[C@@](O)(O2)C(=O)C(=O)N2CCCC[C@H]2C(=O)O[C@H]([C@H](C)C[C@@H]2CC[C@@H](O)[C@H](OC)C2)CC(=O)[C@H](C)/C=C(\C)[C@@H](O)[C@@H](OC)C(=O)[C@H](C)C[C@H](C)/C=C/C=C/C=C/1C [rapamycin],Median time for tumors to reach 1000 mm^3,[10],43 days
same,Tumors smaller than those in vehicle-treated mice,[10],60%
same,Tumor size (mean±SD),"[10]; Day 63, 15 mg/kg PO",1689±1081 mm^3
same,Body weight loss,[11]; Day 7,2.4%
same,Body weight loss,[11]; Day 14,2.8%
same,Survival of treated mice,"[11]; all mice, in words",survived until sacrificed
same,Body weight change from initial body weight,[11]; in words,transiently lost weight
same,Mice of the treatment group that had died or were sacrificed due to sickness,[12],1 of the 10 mice
same,Body weight loss,[13]; Day 8,4.3%
same,Body weight loss,[13]; Day 14,5.8%
same,Mice of the treatment group that had died,[13]; by Day 65,6 of the 10 mice
same,Body weight change from initial body weight,[13]; in words,transiently lost weight
same,Individual mice found dead or sacrificed,[13]; in words,found dead on Day 14; also recorded: found dead on Day 62; also recorded: found dead on Day 63
same,Median time for tumors to reach 1000 mm^3,[14],87 days
same,Tumors smaller than those in vehicle-treated mice,[14],49%
same,Tumor size (mean±SD),"[14]; Day 93, 15 mg/kg PO",1715±393 mm^3
CCN(CC)CCNC(=O)c1c(C)[nH]c(/C=C2\C(=O)Nc3ccc(F)cc32)c1C [sunitinib],Median time for tumors to reach 1000 mm^3,[10],66 days
same,Tumors smaller than those in vehicle-treated mice,[10],66%
same,Tumor size (mean±SD),"[10]; Day 98, 75 mg/kg QD, PO",1494±1150 mm^3
same,Survival of treated mice,"[11]; all mice, in words",survived until sacrificed
same,Clinical observation: skin,"[11]; from Day 7 onward, all mice, in words",yellow-tinged skin
same,Body weight change from initial body weight,[11]; in words,transiently lost weight
same,Mice of the treatment group that had died or were sacrificed due to sickness,[12],1 of the 10 mice
same,Clinical observation: skin,"[13]; from Day 8 onward, all mice, in words",yellow-tinged skin
same,Body weight change from initial body weight,[13]; in words,transiently lost weight
same,Individual mice found dead or sacrificed,[13]; in words,sacrificed on Day 4; also recorded: found dead on Day 17; also recorded: found dead on Day 95
same,Median time for tumors to reach 1000 mm^3,[14],119 days
same,Tumors smaller than those in vehicle-treated mice,[14],83%
same,Tumor size (mean±SD),"[14]; Day 119, 75 mg/kg QD, PO",709938 mm^3

# Reference: patent US11613538B2, “Method of inhibiting or reducing a viral infection” (PTC Therapeutics, Inc., priority 2009, dated 2023)
